Laboratory results taken from ChEMBL document CHEMBL1221210, “A Cdc7 kinase inhibitor restricts initiation of DNA replication and has antitumor activity” (Nat Chem Biol, 2008).

Experiments:
[1] = tested on: Jurkat; test: Induction of cell cycle arrest in p53 deficient human Jurkat cells assessed as accumulation at subG1 phase at 5 uM after 24hrs by FACS analysis; format: functional
[2] = tested on: HeLa; test: Inhibition of DNA replication in human HeLa cells assessed as increase in replication fork speed per min at 20 uM after 2 hrs by immunofluorescence assay; format: functional
[3] = tested on: PC-3; test: Induction of cell cycle arrest in human PC3 cells expressing p53 gene assessed as accumulation at subG1 phase at 5 uM after 24hrs by FACS analysis; format: functional
[4] = Induction of cell cycle arrest in p53 deficient human HCT116-E6 cells assessed as accumulation at subG1 phase at 10 uM after 24hrs by FACS analysis; format: functional
[5] = tested on: PC-3; test: Induction of cell cycle arrest in human PC3 cells expressing p53 gene assessed as residual DNA synthesis at 5 uM after 24 hrs by FACS analysis; format: functional
[6] = Induction of cell cycle arrest in p53 deficient human A2780/E6 cells assessed as accumulation at subG1 phase at 10 uM after 24hrs by FACS analysis; format: functional
[7] = target: Serine/threonine-protein kinase TAO3 (Homo sapiens, UniProt Q9H2K8); test: Inhibition of TAO3
[8] = tested on: OVCAR-8; test: Induction of cell cycle arrest in p53 deficient human OVCAR8 cells assessed as residual DNA synthesis at 10 uM after 24 hrs by FACS analysis; format: functional
[9] = tested on: K562; test: Induction of cell cycle arrest in p53 deficient human K562 cells assessed as accumulation at subG1 phase at 10 uM after 24hrs by FACS analysis; format: functional
[10] = tested on: HeLa; test: Induction of cell cycle arrest in p53 deficient human HeLa cells assessed as residual DNA synthesis at 10 uM after 24 hrs by FACS analysis; format: functional
[11] = tested on: HeLa; test: Inhibition of DNA replication in human HeLa cells assessed as interorigin distance between homogenous DNA fibers at 5 uM after 6 hrs by immunofluorescence assay; format: functional
[12] = Induction of cell cycle arrest in p53 deficient human HCT116-E6 cells assessed as residual DNA synthesis at 10 uM after 24 hrs by FACS analysis; format: functional
[13] = tested on: U2OS; test: Induction of cell cycle arrest in human U2OS cells expressing p53 gene assessed as accumulation at subG1 phase at 10 uM after 24 hrs by FACS analysis; format: functional
[14] = tested on: SF-539; test: Antiproliferative activity against human SF539 cells expressing p53 gene after 72 hrs by proliferative assay; format: functional, cell-based; conditions: SF-539, 72 h
[15] = tested on: NHDF; test: Induction of cell cycle arrest in NHDF expressing p53 gene assessed as accumulation at subG1 phase at 10 uM after 24 hrs by FACS analysis; format: cell-based; conditions: human
[16] = target: Serine/threonine-protein kinase NIM1 (Homo sapiens, UniProt Q8IY84); test: Inhibition of NIM1
[17] = Induction of cell cycle arrest in p53 deficient human A2780/E6 cells assessed as residual DNA synthesis at 5 uM after 24 hrs by FACS analysis; format: functional
[18] = tested on: NHDF; test: Induction of cell cycle arrest in NHDF expressing p53 gene assessed as residual DNA synthesis at 10 uM after 24 hrs by FACS analysis; format: cell-based; conditions: human
[19] = target: Mitogen-activated protein kinase 11 (Homo sapiens, UniProt Q15759); test: Inhibition of P38beta
[20] = tested on: HCT-15; test: Induction of cell cycle arrest in human HCT15 cells expressing p53 gene assessed as residual DNA synthesis at 10 uM after 24 hrs by FACS analysis; format: functional
[21] = tested on: HeLa; test: Antiproliferative activity against p53 deficient human HeLa cells after 72 hrs; format: functional, cell-based
[22] = tested on: SF-539; test: Induction of cell cycle arrest in human SF539 cells expressing p53 gene assessed as residual DNA synthesis at 5 uM after 24 hrs by FACS analysis; format: functional
[23] = tested on: HeLa; test: Inhibition of DNA replication in human HeLa cells assessed as interorigin distance between homogenous DNA fibers at 2 uM after 6 hrs by immunofluorescence assay; format: functional
[24] = tested on: SW480; test: Induction of cell cycle arrest in p53 deficient human SW480 cells assessed as residual DNA synthesis at 5 uM after 24 hrs by FACS analysis; format: functional
[25] = tested on: Jurkat; test: Induction of cell cycle arrest in p53 deficient human Jurkat cells assessed as residual DNA synthesis at 10 uM after 24 hrs by FACS analysis; format: functional
[26] = tested on: HCT-116; test: Induction of cell cycle arrest in human HCT116 cells expressing p53 gene assessed as residual DNA synthesis at 5 uM after 24 hrs by FACS analysis; format: functional
[27] = tested on: NHDF; test: Prevention of nocodazole induced mitotic arrest in NHDF after 1 hr by FACS analysis; format: cell-based; conditions: human
[28] = tested on: Mus musculus; test: AUC in SCID mouse carrying human HL60 cells at 30 mg/kg, iv after 10 hrs; format: ADME, organism-based, HL-60; set-up: time < 10 hr, dose 30 mg/kg, route intravenous; conditions: in vivo
[29] = tested on: MCF7; test: Induction of cell cycle arrest in human MCF7 cells expressing p53 gene assessed as residual DNA synthesis at 10 uM after 24 hrs by FACS analysis; format: functional
[30] = Induction of cell cycle arrest in p53 deficient human A2780/E6 cells as accumulation at subG1 phase at 5 uM after 24hrs by FACS analysis; format: functional
[31] = tested on: SW480; test: Induction of cell cycle arrest in p53 deficient human SW480 cells assessed as accumulation at subG1 phase at 5 uM after 24hrs by FACS analysis; format: functional
[32] = tested on: HCT-15; test: Induction of cell cycle arrest in human HCT15 cells expressing p53 gene assessed as accumulation at subG1 phase at 10 uM after 24 hrs by FACS analysis; format: functional
[33] = tested on: Rattus norvegicus; test: AUC in rat carrying DMBA-induced mammary carcinoma at 10 mg/kg, iv after 10 hrs; format: ADME, organism-based, Plasma; set-up: time < 10 hr, dose 10 mg/kg, route intravenous; conditions: in vivo
[34] = tested on: HeLa; test: Inhibition of DNA replication in human HeLa cells assessed as interorigin distance between homogenous DNA fibers at 20 uM after 2 hrs by immunofluorescence assay; format: functional
[35] = tested on: MCF7; test: Induction of cell cycle arrest in human MCF7 cells expressing p53 gene assessed as residual DNA synthesis at 5 uM after 24 hrs by FACS analysis; format: functional
[36] = tested on: HCT-116; test: Induction of cell cycle arrest in human HCT116 cells expressing p53 gene assessed as accumulation at subG1 phase at 10 uM after 24 hrs by FACS analysis; format: functional
[37] = tested on: OVCAR-8; test: Induction of cell cycle arrest in p53 deficient human OVCAR8 cells assessed as accumulation at subG1 phase at 5 uM after 24hrs by FACS analysis; format: functional
[38] = tested on: HeLa; test: Inhibition of DNA synthesis in human HeLa cells assessed as Brd-U uptake at 5 uM after 9 hrs by FACS analysis; format: functional; set-up: scale not given: the % may be the effect or the level left
[39] = tested on: NHDF; test: Induction of cell cycle arrest in thymidine deficient NHDF assessed as DNA synthesis in S-phase at 5 uM after 2hrs FACS analysis; format: cell-based; conditions: human
[40] = tested on: U2OS; test: Induction of cell cycle arrest in human U2OS cells expressing p53 gene assessed as residual DNA synthesis at 5 uM after 24 hrs by FACS analysis; format: functional
[41] = target: Protein kinase C beta type (Homo sapiens, UniProt P05771); test: Inhibition of PKCbeta
Protein kinase C beta type, sequence (P05771 whole entry): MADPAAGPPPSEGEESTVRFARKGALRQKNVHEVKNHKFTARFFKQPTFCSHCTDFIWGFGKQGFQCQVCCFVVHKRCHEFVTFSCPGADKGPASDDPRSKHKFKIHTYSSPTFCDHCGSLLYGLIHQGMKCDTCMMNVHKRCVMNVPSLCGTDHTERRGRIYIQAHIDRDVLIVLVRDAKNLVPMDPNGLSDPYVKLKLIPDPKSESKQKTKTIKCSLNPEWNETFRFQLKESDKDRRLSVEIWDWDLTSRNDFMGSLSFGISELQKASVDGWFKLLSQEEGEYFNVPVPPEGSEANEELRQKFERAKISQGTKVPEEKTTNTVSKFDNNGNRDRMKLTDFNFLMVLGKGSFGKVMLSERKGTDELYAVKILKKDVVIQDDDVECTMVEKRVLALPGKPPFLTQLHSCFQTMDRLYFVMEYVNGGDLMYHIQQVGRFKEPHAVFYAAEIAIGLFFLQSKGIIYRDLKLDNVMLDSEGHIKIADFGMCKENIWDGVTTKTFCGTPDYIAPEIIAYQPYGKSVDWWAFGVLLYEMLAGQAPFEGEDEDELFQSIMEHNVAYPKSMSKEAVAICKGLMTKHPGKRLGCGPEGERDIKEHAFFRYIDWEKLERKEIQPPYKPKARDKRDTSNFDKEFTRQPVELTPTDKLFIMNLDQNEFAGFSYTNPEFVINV

Serine/threonine-protein kinase NIM1, sequence (Q8IY84 whole entry): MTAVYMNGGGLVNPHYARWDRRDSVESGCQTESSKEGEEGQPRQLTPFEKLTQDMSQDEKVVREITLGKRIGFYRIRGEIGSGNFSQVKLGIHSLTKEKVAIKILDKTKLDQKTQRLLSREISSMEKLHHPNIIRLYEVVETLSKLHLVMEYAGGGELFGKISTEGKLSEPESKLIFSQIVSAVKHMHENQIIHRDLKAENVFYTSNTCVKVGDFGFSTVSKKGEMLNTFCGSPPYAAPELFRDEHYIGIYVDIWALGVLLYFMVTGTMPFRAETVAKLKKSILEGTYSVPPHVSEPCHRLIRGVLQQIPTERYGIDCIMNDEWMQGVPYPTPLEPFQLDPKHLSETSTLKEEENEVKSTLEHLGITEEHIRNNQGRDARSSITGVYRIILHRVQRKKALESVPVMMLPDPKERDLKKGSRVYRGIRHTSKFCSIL
Serine/threonine-protein kinase TAO3, sequence (Q9H2K8 whole entry): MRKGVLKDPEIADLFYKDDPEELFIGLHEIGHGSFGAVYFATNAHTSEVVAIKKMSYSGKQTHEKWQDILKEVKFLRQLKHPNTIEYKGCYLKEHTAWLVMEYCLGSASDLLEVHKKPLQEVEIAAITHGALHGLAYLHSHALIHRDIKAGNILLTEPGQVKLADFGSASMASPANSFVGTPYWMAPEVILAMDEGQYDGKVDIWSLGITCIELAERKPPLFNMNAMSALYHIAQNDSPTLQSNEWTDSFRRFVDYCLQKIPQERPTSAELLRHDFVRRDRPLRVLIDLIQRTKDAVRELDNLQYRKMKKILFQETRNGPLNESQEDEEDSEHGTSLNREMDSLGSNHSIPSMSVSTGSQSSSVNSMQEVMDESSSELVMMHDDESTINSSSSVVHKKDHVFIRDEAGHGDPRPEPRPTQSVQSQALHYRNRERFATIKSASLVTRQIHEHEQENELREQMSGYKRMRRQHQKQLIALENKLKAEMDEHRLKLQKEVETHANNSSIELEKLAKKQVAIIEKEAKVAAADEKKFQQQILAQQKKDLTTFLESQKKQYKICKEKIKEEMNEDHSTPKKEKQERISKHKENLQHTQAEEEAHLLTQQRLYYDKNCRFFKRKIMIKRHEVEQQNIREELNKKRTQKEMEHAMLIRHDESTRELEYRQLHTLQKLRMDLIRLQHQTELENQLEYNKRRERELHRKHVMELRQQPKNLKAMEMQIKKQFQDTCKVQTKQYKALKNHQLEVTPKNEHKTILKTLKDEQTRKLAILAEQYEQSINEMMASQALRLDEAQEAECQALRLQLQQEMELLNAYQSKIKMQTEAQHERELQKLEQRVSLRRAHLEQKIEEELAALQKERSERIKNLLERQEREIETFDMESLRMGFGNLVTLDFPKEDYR
Mitogen-activated protein kinase 11, sequence (Q15759 whole entry): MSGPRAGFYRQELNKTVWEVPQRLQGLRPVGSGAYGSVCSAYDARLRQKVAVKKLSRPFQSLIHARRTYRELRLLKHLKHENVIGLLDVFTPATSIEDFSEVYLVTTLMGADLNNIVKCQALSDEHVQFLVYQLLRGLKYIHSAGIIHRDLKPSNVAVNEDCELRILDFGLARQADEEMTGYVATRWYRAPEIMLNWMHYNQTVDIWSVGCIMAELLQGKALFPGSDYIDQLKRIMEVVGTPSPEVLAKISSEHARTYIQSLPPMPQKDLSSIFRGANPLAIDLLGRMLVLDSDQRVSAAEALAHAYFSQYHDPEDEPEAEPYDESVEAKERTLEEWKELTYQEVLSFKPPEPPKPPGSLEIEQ

O=C1NCCc2[nH]c(-c3ccncc3)cc21
Activity [1]: >20%
Activity [2]: 1.92 kilobase
Activity [3]: 3%
Activity [4]: 3%
Activity [5]: 3%
Activity [6]: >20%
IC50 [7]: > 10 µM
Activity [8]: <3%
Activity [9]: <3%
Activity [10]: <3%
Activity [11]: 293 kilobase
Activity [12]: <3%
Activity [13]: 3%
IC50 [14]: 2.34 µM
Activity [15]: < 3%
IC50 [16]: > 10 µM
Activity [17]: <3%
Activity [18]: < 3%
IC50 [19]: > 10 µM
Activity [20]: <3%
IC50 [21]: 1.83 µM
Activity [22]: 3%
Activity [23]: 241 kilobase
Activity [24]: <3%
Activity [25]: <3%
Activity [26]: 3%
Activity [27]: Not Active
AUC [28]: 71 µM·h
Activity [29]: <3%
Activity [30]: >20%
Activity [31]: >20%
Activity [32]: 3%
AUC [33]: 21 µM·h
Activity [34]: 226 kilobase
Activity [35]: <3%
Activity [36]: 3%
Activity [37]: 3%
Activity [38]: 9%
Activity [39]: Not Active
Activity [40]: <3%
IC50 [41]: > 10 µM
